Laboratory results published in patent US20040224020A1, “Oral dosage forms with therapeutically active agents in controlled release cores and immediate release gelatin capsule coats” (priority 2002, published 2004).

How the values were obtained:
[1] = Viscosity of SAIB/solvent compositions, Cannon-Fenske viscometer; assay type: physicochemical; conditions: Cannon-Fenske viscometer of size 200 at 30° C.
[2] = From the text: Where the controlled release core is in the form of a liquid, the amount and type of solvent used with SAIB should be optimized so as to obtain a liquid wherein the at least one therapeutically active agent is acceptably soluble.
In order to obtain a soluble liquid fill, the amounts of (i) SAIB, (ii) at least one biocompatible solvent, and (iii) at least one therapeutically active agent is optimized.

Row | viscosity (centipoises value) [1] | ethanol required to achieve solubility with SAIB [2] | Structure (SMILES)
1 | 1.3 centipoises |  | CCO [ethanol]
2 |  | approximately 15 % (by weight) | CC(C)Cc1ccc(C(C)C(=O)O)cc1 (centres unmarked) [ibuprofen]
